Reference: patent publication US10736968B2, “Cellular signalling inhibitors, their formulations and methods thereof” (INVICTUS ONCOLOGY PVT. LTD., priority 2016, dated 2020)

Columns and labels:
AKT-mTOR-p70S6K pathway = test: Downstream signaling in macrophages after drug washout and MCSF exposure (Western blot); type: cell-based; settings: 4 hours drug, washout 7 h or 48 h, MCSF 2 h
CSF1R = molecular target: T1, CSF1R (Mus musculus, UniProt P09581); test: CSF1R phosphorylation in RAW264.7 cells after CSF-1 stimulation (Western blot); type: cell-based; settings: 67 nM, different time points, then CSF1 10 ng/ml for 20 min
T1 construct: endogenous in cells
T1 sequence (P09581 20-977): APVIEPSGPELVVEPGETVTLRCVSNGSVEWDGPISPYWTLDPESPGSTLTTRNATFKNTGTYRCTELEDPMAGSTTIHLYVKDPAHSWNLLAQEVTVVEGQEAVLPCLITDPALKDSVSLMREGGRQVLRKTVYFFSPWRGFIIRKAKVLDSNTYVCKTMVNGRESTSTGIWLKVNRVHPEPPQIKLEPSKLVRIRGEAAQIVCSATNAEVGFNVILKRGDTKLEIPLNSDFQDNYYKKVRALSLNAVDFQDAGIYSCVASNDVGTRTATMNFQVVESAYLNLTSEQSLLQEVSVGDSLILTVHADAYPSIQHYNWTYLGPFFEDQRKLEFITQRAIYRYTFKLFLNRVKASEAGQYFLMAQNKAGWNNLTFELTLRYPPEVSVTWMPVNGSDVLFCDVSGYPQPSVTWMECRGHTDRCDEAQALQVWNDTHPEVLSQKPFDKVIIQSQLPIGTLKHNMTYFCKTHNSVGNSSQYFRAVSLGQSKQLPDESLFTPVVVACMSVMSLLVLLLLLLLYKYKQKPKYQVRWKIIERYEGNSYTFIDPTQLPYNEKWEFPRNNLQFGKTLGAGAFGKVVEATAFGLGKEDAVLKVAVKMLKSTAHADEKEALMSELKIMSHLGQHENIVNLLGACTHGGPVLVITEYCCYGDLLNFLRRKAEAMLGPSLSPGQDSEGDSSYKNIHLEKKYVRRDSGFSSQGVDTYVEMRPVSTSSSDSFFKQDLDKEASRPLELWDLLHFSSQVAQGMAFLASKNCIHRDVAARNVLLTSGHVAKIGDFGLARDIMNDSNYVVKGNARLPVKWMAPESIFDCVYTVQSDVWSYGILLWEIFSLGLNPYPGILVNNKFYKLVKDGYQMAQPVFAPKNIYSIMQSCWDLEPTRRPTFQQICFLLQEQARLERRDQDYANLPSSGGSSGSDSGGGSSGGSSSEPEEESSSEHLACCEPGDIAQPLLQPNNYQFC
Protocol: FIG. 2. (a) Expression of phospho-CSF1R in RAW264.7 cells at different time points post-treatment with mCSF. (b-c) Treatment with either BLZ-945 (a current gold standard small molecule inhibitor of CSF1R) or AK750 (the formulated form of BLN101) across different time points followed by CSF-1 (10 ng/mL) stimulation for 20 minutes. After stimulation the cells were washed with cold PBS and the cell lysates were collected.
Activity Studies of Compound of Formula I • Efficacy of BLN101 vs BLZ945 on the ability to inhibit CSF1R in vitro is studied. RAW264.7 cells are treated with BLZ945 (67 nM) or BLN101 (67 nM) for different time points, at the end of which the cells were exposed to CSF1 (10 ng/ml) for 20 min. The cells were then lysed and analyzed for phosphorylated CSF1R levels. […] Efficacy of BLN101 (in formulation AK750) vs BLZ945 on increase in iNOS expression in vitro is studied. It is observed that exposure to Tumor Conditioned Media over 24 h decreases INOS levels. Measurement of the expression of iNOS in RAW264.7 cells at different time points after treatment with B-16-tumour conditioned media followed by BLZ-945 or BLN101 (as AK750 formulation) treatment across different time points. […] At different time-points, the cells are harvested and analyzed the population for M1 (MHCII+, CD86+, CD80+) or M2 (CD206+) markers using fluorescence activated cell sorting (FIG. 5d). […]

SMILES: CNC(=O)c1cc(Oc2ccc3nc(N[C@@H]4CCCC[C@H]4O)sc3c2)ccn1 [BLZ-945]
- AKT-mTOR-p70S6K downstream signaling (AKT-mTOR-p70S6K pathway): not by BLZ945 and PLX3397

SMILES: CNC(=O)c1cc(Oc2ccc3nc(NC4CCCC[C@H]4OC(=O)CCC(=O)O[C@H]4CC[C@@]5(C)C(=CC[C@H]6[C@@H]7CC[C@H](C(C)CCCC(C)C)[C@@]7(C)CC[C@@H]65)C4)sc3c2)ccn1 (stereo in doubt) [BLN101]
- inhibition of CSF1R (phosphorylated CSF1R levels) (CSF1R): sustained and statistically significantly greater inhibition of CSF1R as compared with BLZ945
- inhibition of CSF1R (phosphorylated CSF1R levels) (CSF1R; listed as BLZ101): potent inhibitor of CSF1R
